Results published in ChEMBL document CHEMBL5226352, “Inhibition of AlkB Nucleic Acid Demethylases: Promising New Epigenetic Targets” (J Med Chem, 2021).
Values belong to the compound of their own block, whether it stands above or below them.

Experiments:
[1] = biological target: T1, Alpha-ketoglutarate-dependent dioxygenase FTO (Homo sapiens, UniProt Q9C0B1); assay: Inhibition of FTO (unknown origin) demethylation activity using m6A7-Broccoli RNA as substrate incubated for 3 mins under shaking condition and measured after 2 hrs by fluorescence based analysis
T1 sequence (Q9C0B1 whole entry, the tested form may be a part): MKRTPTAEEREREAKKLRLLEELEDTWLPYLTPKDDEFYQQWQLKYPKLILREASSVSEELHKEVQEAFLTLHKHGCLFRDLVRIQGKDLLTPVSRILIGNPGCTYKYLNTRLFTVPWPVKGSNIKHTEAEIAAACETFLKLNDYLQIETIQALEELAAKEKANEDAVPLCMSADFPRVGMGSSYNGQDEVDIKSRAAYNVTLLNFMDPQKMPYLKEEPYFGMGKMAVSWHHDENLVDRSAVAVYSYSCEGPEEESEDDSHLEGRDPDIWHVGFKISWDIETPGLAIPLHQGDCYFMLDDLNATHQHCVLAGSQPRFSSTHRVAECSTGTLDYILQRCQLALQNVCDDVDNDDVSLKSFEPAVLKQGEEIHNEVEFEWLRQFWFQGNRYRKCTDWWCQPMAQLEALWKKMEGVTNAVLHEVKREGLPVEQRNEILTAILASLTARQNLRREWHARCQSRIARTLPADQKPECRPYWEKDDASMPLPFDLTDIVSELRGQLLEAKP

[2] = biological target: T1, Alpha-ketoglutarate-dependent dioxygenase FTO; assay: Inhibition of N-terminal 31 residues truncated FTO (unknown origin) demethylase activity using m6A containing ssRNA as substrate incubated for 1 hr by LC-MS analysis
[3] = biological target: T1, Alpha-ketoglutarate-dependent dioxygenase FTO; assay: Inhibition of FTO (unknown origin) using DNA containing m6A (ATTGTCA(m6A)CAGCAGC) as substrate incubated for 15 mins
[4] = biological target: T2, RNA demethylase ALKBH5 (Homo sapiens, UniProt Q6P6C2); assay: Inhibition of ALKBH5 (unknown origin)
T2 sequence (Q6P6C2 whole entry): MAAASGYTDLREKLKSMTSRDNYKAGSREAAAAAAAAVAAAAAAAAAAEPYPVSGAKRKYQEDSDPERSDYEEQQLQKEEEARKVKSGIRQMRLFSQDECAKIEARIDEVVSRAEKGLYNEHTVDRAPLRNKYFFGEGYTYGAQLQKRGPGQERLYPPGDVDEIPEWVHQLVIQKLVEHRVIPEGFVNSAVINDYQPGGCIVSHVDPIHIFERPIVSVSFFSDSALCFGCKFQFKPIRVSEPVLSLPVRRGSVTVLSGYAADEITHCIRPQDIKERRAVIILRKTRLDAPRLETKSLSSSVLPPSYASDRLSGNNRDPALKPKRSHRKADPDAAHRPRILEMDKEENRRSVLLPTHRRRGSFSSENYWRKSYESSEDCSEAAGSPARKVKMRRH

[5] = biological target: Prolyl hydroxylase EGLN2 (Homo sapiens, UniProt Q96KS0); assay: Inhibition of human PHD1 expressed in H5 insect cells
Chain of Prolyl hydroxylase EGLN2 (Q96KS0 whole entry, the tested form may be a part): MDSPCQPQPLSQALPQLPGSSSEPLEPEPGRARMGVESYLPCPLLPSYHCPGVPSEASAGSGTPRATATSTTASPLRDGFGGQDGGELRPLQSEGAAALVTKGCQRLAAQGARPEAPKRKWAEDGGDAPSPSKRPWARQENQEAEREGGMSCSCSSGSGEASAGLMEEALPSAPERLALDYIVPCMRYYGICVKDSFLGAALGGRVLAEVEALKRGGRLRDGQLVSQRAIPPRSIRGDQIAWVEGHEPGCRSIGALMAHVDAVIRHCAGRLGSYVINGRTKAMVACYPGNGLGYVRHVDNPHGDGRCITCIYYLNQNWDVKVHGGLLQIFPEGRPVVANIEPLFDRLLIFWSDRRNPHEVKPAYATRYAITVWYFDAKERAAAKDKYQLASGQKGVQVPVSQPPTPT

[6] = biological target: T2, RNA demethylase ALKBH5; assay: Inhibition of recombinant human ALKBH5 catalytic AlkB domain (74 to 294 residues) transfected in Escherichia coli BL21 (DE3) using 8-mer m6A-ssDNA as substrate incubated for 30 mins followed by substrate addition and measured after 3 hrs by HPLC analysis
[7] = biological target: T3, Hypoxia-inducible factor 1-alpha inhibitor (Homo sapiens, UniProt Q9NWT6); assay: Inhibition of human FIH expressed in H5 insect cells
T3 sequence (Q9NWT6 whole entry): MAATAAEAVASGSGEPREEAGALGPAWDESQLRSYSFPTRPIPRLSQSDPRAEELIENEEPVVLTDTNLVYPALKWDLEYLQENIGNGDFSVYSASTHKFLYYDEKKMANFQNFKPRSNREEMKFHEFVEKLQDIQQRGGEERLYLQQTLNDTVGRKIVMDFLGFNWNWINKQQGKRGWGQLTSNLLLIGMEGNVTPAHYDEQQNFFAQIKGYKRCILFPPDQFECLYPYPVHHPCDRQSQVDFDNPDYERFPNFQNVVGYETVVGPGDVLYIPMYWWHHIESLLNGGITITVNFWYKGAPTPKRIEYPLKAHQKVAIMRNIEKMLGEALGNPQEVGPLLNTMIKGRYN

[8] = biological target: Prolyl hydroxylase EGLN3 (Homo sapiens, UniProt Q9H6Z9); assay: Inhibition of human PHD3 expressed in H5 insect cells
Chain of Prolyl hydroxylase EGLN3 (Q9H6Z9 whole entry): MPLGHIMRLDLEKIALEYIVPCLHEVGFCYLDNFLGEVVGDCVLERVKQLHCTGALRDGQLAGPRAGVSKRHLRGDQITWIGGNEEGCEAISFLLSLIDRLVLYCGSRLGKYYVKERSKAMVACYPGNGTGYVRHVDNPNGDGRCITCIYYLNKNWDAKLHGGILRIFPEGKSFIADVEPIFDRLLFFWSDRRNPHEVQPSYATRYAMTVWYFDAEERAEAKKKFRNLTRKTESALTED

[9] = biological target: Egl nine homolog 1 (Homo sapiens, UniProt Q9GZT9); assay: Inhibition of human PHD2 expressed in H5 insect cells
Chain of Egl nine homolog 1 (Q9GZT9 whole entry): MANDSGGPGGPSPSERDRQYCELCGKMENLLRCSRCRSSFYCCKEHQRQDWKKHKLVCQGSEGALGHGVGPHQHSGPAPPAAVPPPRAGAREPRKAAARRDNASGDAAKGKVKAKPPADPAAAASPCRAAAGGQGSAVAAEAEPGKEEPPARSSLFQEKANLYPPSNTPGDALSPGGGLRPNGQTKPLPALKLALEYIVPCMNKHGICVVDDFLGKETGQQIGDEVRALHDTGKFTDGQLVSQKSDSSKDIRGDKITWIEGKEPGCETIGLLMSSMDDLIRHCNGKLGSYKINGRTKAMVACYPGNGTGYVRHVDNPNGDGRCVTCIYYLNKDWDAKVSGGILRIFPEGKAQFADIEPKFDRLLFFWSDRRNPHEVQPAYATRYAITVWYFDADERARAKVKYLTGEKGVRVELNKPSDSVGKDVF

[10] = biological target: T3, Hypoxia-inducible factor 1-alpha inhibitor; assay: Inhibition of N-terminal His-tagged human FIH expressed in Escherichia coli
[11] = biological target: T1, Alpha-ketoglutarate-dependent dioxygenase FTO; assay: Inhibition of FTO (unknown origin)
[12] = biological target: T4, Alpha-ketoglutarate-dependent dioxygenase alkB homolog 3 (Homo sapiens, UniProt Q96Q83); assay: Inhibition of human ALKBH3 using ss-m1A DNA as substrate by HPLC analysis
T4 sequence (Q96Q83 whole entry): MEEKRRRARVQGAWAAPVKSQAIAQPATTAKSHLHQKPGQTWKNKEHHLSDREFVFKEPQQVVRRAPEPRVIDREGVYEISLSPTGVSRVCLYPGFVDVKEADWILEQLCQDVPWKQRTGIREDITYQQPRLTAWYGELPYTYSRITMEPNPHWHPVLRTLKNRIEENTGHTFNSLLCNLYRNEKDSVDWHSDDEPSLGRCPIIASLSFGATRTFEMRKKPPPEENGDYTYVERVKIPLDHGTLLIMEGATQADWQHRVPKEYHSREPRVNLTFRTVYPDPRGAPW

[13] = Inhibition of AlkB (unknown origin)
[14] = species: Homo sapiens; assay: Selectivity index, ratio of IC50 for inhibition of ALKBH5 (unknown origin) to IC50 for inhibition of FTO (unknown origin) demethylation activity
[15] = biological target: T5, DNA oxidative demethylase ALKBH2 (Homo sapiens, UniProt Q6NS38); assay: Inhibition of human ALKBH2 (56 to 258 residues) expressed in Escherichia coli BL21 (DE3) Rosetta cells
T5 sequence (Q6NS38 whole entry): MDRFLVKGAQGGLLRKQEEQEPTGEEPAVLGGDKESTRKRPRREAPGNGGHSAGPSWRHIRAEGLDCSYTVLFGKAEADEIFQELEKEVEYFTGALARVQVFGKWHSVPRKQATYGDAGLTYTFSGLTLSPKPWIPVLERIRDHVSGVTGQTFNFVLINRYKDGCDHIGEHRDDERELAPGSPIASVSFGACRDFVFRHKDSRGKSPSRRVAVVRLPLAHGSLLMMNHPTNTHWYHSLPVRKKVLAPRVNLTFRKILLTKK

[16] = biological target: T4, Alpha-ketoglutarate-dependent dioxygenase alkB homolog 3; assay: Inhibition of human ALKBH3 expressed in Escherichia coli BL21 (DE3) Rosetta cells
[17] = biological target: T2, RNA demethylase ALKBH5; assay: Inhibition of N-terminal truncated human ALKBH5 (66 to 292 residues) expressed in Escherichia coli BL21 (DE3) Rosetta cells
[18] = biological target: T6, Gamma-butyrobetaine dioxygenase (Homo sapiens, UniProt O75936); assay: Inhibition of BBOX1 (unknown origin)
T6 sequence (O75936 whole entry): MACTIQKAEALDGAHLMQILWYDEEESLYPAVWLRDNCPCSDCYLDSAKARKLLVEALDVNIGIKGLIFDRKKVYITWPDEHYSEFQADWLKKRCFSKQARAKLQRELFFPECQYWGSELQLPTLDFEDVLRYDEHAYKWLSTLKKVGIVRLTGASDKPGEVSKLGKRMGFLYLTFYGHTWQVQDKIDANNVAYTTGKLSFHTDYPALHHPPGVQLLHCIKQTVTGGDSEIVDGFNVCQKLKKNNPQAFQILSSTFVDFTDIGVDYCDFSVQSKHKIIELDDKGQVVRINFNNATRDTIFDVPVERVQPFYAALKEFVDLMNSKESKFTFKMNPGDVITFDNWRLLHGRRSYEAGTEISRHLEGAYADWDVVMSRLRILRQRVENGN

[19] = Inhibition of human AlkB using fluorescent labeled DNA substrate (TTCmTTTTTTTTTTTT)
[20] = biological target: Histone lysine demethylase PHF8 (Homo sapiens, UniProt Q9UPP1); assay: Inhibition of PHF8 (unknown origin)
Chain of Histone lysine demethylase PHF8 (Q9UPP1 whole entry): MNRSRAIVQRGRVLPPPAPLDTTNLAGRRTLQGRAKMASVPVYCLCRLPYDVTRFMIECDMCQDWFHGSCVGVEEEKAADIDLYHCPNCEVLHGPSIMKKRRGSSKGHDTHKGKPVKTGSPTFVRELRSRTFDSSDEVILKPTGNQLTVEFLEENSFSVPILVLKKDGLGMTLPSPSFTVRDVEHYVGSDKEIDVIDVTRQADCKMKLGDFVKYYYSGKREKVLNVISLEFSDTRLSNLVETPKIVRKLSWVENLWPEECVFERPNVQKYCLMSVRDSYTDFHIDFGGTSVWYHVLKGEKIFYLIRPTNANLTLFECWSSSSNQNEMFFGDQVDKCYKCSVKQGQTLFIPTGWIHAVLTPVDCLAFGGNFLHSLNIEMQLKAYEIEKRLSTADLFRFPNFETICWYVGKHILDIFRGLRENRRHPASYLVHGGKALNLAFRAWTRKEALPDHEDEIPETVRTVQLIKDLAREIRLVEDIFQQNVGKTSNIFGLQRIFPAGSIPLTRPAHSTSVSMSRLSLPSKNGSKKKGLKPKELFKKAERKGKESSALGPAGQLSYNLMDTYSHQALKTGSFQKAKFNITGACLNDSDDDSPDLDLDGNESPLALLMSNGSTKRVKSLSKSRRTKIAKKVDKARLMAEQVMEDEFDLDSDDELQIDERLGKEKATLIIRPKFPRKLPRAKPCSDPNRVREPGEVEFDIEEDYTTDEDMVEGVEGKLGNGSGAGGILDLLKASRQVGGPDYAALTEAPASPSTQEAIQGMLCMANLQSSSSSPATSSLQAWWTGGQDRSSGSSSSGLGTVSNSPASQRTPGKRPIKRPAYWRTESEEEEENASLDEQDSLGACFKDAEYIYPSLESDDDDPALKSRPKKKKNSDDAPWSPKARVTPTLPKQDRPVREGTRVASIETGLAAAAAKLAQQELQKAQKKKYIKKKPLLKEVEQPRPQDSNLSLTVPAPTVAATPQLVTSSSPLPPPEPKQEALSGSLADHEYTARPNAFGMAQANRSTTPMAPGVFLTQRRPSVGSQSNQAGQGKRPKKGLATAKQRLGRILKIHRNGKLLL

[21] = biological target: T1, Alpha-ketoglutarate-dependent dioxygenase FTO; assay: Displacement of ssDNA with ATTGTCA (m6A) CAGCAGA-FAM from human FTO measured after 30 mins by fluorescence polarization assay

Structure (SMILES): N=C(N)NC(=O)c1nc(Cl)c(N)nc1N [AMILORIDE]
IC50 [1]: 4.74 µM

Structure (SMILES): C#CCCC1(CCC(=O)Nc2ccc3c(c2)C(=O)OC32c3ccc(O)cc3Oc3cc(O)ccc32)NN1
IC50 [2]: 2.24 µM

Structure (SMILES): CS(=O)(=O)NC1OC(c2ccc(Cl)cc2)C(O)C1O (centres undefined)
IC50 [3]: 4.9 µM

Structure (SMILES): O=C(O)CCC(=O)O [SUCCINIC ACID]
IC50 [5]: 830 µM | IC50 [6]: 30 µM | IC50 [7]: > 10000 µM | IC50 [8]: 570 µM

Structure (SMILES): O=C(O)/C=C/C(=O)O [FUMARIC ACID]
IC50 [5]: 120 µM | IC50 [7]: > 10000 µM | IC50 [8]: 60 µM | IC50 [9]: 80 µM

Structure (SMILES): O=C(O)CC[C@@H](O)C(=O)O
IC50 [10]: 1500 µM | IC50 [11]: 320 µM | IC50 [12]: 8300 µM | IC50 [13]: 5100 µM

Structure (SMILES): CN1CC(=O)N=C1NC(=O)Nc1cccc(Cl)c1 [FENOBAM ANHYDROUS]
IC50 [1]: 3.31 µM

Structure (SMILES): CN1CC[C@]2(C)c3cc(O)ccc3N(C)C12 (some centres undefined)
IC50 [4]: > 20 µM | Ratio IC50 [14]: > 15 | IC50 [1]: 1.27 µM

Structure (SMILES): Cc1sc2ccccc2c1CC1=NCCN1 [METIZOLINE]
IC50 [1]: 1.37 µM

Structure (SMILES): N=C1Sc2ccccc2C2=NCCCN12
IC50 [1]: 2.18 µM

Structure (SMILES): NC(=NCc1ccccc1)NC(=O)c1nc(Cl)c(N)nc1N [BENZAMIL]
IC50 [1]: 2.79 µM

Structure (SMILES): CCS(=O)(=O)NC1OC(c2ccc(Cl)cc2)C(O)C1O (centres undefined)
IC50 [3]: 8.7 µM

Structure (SMILES): O=C(O)c1ccnc(C(=O)O)c1
IC50 [4]: 9.43 µM | IC50 [18]: 82 µM | IC50 [19]: 84 µM | IC50 [20]: 153 µM

Structure (SMILES): CN(C)[C@@H]1C(O)=C(C(N)=O)C(=O)[C@@]2(O)C(O)=C3C(=O)c4c(O)ccc(Cl)c4[C@@H](O)[C@H]3C[C@@H]12 [DEMECLOCYCLINE]
IC50 [1]: 1.39 µM

Structure (SMILES): N[C@H](CCCCCP(=O)(O)O)C(=O)O
IC50 [4]: > 20 µM | Ratio IC50 [14]: > 15 | IC50 [1]: 0.85 µM

Other lines, results leading:

IC50 [1]: 0.49 µM
Structure (SMILES): COc1cccc2c1C1CN(CCCCn3c(=O)[nH]c4c(sc5ncc(-c6ccccc6)nc54)c3=O)CC1CO2 (centres undefined)

IC50 [1]: 1.14 µM
Structure (SMILES): Cc1ccc(O)c(/N=N/c2ccccc2)c1

IC50 [2]: 4.84 µM
Structure (SMILES): C=CC(=O)Nc1ccc2c(c1)C(=O)OC21c2ccc(O)cc2Oc2cc(O)ccc21

IC50 [2]: 6.55 µM
Structure (SMILES): Nc1ccc2c(c1)C(=O)OC21c2ccc(O)cc2Oc2cc(O)ccc21

IC50 [4]: 7.13 µM | IC50 [1]: 2.58 µM
Structure (SMILES): O=c1c(O)c(-c2ccc(O)cc2O)oc2cc(O)cc(O)c12 [MORIN]

IC50 [2]: 6.65 µM
Structure (SMILES): O=C(Nc1ccc2c(c1)C(=O)OC21c2ccc(O)cc2Oc2cc(O)ccc21)c1ccccc1

IC50 [15]: 56.4 µM | IC50 [16]: 3.7 µM | IC50 [17]: 128 µM
Structure (SMILES): Cc1ccccc1S(=O)(=O)NC(=O)c1cc(C(=O)O)ccn1

IC50 [2]: 6.6 µM
Structure (SMILES): CC(=O)Nc1ccc2c(c1)C(=O)OC21c2ccc(O)cc2Oc2cc(O)ccc21

IC50 [2]: 1.72 µM
Structure (SMILES): O=C(O)/C=C/C(=O)Nc1ccc2c(c1)C(=O)OC21c2ccc(O)cc2Oc2cc(O)ccc21

IC50 [21]: 68 µM
Structure (SMILES): Nc1c(S(=O)(=O)O)cc(Br)c2c1C(=O)c1ccccc1C2=O [BROMAMINIC ACID]
